In paper PMC11843613, “Further Optimization of the mGlu1 PAM VU6024578/BI02982816: Discovery and Characterization of VU6033685” (ACS Chemical Neuroscience, 2025):

Molecular target: mouse mGlu1 (Mus musculus, UniProt P97772)
Assay: mGlu1 PAM functional assay (mouse)
Format: cell-based

mouse mGlu1, sequence (P97772 19-1199 limits assumed): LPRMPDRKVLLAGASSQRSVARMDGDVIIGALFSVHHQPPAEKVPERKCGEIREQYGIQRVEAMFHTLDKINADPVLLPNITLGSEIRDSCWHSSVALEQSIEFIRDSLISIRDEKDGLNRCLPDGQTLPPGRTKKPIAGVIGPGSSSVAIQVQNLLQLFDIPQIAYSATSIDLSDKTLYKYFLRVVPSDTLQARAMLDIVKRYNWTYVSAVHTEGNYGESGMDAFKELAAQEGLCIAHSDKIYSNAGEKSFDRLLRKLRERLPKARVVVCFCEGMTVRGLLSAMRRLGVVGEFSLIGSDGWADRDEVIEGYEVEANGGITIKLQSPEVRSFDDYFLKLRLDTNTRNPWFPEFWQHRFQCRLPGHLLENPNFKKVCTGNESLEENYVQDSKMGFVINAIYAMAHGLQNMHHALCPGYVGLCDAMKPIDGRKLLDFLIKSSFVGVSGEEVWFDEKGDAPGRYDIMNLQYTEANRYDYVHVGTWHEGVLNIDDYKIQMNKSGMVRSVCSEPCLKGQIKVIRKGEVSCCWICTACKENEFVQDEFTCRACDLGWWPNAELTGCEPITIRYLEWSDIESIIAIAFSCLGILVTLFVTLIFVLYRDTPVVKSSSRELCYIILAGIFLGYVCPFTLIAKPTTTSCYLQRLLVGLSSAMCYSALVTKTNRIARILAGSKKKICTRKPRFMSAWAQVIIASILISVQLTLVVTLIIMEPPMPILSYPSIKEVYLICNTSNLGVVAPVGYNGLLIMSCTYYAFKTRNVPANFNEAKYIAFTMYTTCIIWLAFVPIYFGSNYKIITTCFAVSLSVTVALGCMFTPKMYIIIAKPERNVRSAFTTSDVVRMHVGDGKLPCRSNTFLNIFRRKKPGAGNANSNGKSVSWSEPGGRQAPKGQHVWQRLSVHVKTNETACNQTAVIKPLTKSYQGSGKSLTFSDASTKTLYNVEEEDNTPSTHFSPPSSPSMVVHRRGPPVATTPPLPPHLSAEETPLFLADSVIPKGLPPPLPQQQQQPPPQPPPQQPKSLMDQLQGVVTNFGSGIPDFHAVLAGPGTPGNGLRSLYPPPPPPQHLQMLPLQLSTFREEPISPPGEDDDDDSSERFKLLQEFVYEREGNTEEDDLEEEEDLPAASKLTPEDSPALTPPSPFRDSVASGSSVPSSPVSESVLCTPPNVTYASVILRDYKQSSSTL

For `Cc1nc(C2CC2)ccc1CNC(=O)c1cc(-n2cccn2)ccc1Cl` [compound 8], the EC50 was 52 nM and the “mouse mGlu1 Glu Max” value was 102%.
